pIC50, pKi: −log10 of the molar value.
Assays:
[1] = biological target: T1, Xanthine dehydrogenase/oxidase (Bos taurus, UniProt P80457); details: cattle
[2] = Inhibition of horse liver recombinant thymidine phosphorylase; design: species or system Equus caballus
[3] = biological target: T1, Xanthine dehydrogenase/oxidase; experiment: Inhibition of bovine xanthine oxidase using hypoxanthine as a substrate
[4] = biological target: T1, Xanthine dehydrogenase/oxidase; experiment: Inhibition of bovine xanthine oxidase using xanthine as a substrate

T1 sequence (P80457 whole entry): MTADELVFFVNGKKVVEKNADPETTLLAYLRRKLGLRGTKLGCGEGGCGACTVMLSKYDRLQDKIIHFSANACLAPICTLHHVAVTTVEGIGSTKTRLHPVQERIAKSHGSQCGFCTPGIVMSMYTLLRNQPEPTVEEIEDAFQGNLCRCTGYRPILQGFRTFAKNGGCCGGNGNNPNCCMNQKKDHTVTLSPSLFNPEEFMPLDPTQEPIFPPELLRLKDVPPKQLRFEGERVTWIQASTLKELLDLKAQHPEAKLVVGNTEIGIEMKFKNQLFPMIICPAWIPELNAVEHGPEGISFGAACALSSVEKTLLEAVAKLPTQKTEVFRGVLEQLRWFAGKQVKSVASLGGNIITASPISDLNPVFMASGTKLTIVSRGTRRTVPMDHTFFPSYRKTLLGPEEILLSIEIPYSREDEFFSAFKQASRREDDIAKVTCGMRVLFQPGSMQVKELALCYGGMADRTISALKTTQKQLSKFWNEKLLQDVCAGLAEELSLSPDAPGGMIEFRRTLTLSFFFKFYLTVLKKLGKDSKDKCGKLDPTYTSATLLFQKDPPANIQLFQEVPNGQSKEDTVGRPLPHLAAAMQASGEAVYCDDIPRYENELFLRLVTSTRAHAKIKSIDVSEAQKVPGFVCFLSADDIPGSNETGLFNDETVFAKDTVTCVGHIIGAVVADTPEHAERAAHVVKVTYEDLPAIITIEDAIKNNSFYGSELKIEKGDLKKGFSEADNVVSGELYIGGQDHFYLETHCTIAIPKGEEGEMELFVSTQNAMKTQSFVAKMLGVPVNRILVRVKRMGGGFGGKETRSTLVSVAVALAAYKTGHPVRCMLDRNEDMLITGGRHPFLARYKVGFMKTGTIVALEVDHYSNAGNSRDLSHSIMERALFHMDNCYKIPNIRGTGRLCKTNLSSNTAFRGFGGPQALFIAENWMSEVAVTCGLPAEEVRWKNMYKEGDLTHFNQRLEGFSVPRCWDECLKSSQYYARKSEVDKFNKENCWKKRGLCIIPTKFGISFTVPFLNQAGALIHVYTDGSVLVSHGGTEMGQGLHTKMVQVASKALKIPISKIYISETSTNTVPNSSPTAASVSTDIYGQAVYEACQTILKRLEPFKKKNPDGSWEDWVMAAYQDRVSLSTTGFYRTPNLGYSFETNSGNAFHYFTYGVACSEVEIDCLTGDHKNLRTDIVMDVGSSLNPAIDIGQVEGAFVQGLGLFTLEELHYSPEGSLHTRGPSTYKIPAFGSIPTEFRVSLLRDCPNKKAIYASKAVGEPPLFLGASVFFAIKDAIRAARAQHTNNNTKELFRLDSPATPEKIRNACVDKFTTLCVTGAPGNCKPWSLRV

Structure (SMILES)	Km [1] [µM]	also measured
Nc1ncncc1Br	44.4	
N=C1CCCN1Cc1nc[nH]c(=O)c1Cl	64.9	
Nc1[nH]c(=O)ncc1Br	32.5	
O=c1[nH]cnc2[nH]ccc12	45.1	
O=c1ncc2cc[nH]c2[nH]1	29.8	
Nc1nc[nH]c(=O)c1Br	23.8	
Nc1[nH]c(=O)[nH]c(=O)c1Br		pIC50 [2]: 4.52
O=c1[nH]c(=O)c2cc[nH]c2[nH]1 [7-DEAZAXANTHINE]		pKi [3]: 4.60; pKi [4]: 4.15

Source: ChEMBL document CHEMBL1156686, “Xanthine oxidase-activated prodrugs of thymidine phosphorylase inhibitors” (Eur J Med Chem, 2008)
